Patent US10238648B2 (priority 2014, dated 2019)
Where a name gives a salt, the structure may show the parent alone. Read-outs that look alike come from different tables or passages of the source.

What was measured:
[1] = cited from earlier work
[2] = oral dose x bioavailability
Description: [formula] [formula] [formula] Dual Penetration Enhancer Formulations

[3] = Permeation of abuse-deterrent (naloxone) formulations through separating membrane and placebo opioid layer, 72 h diffusion study; format: in vitro ADME; conditions: from abuse deterrent layer NLX-2014-01-011
Experimental: The ability of abuse-deterrent layer formulations to migrate into the oxymorphone layer was investigated. A placebo oxymorphone layer was prepared and two abuse-deterrent formulations (NLX-2014-01-011 and NLX-2014-01-012) were tested with different separating layers. The appearance of both formulations was uniform and aesthetically pleasing. When assembled, no distinguishable layers could be observed and the layers themselves were inseparable. Patches of size 0.95 cm^2 patches were punched out from the release liner side of the assembled roll.
Insofar as NLX-2014-01-011 is concerned, while two cells did show permeation from the abuse deterrent layer, this was probably due to the abuse deterrent layer contacting the skin, as by the end of the experiment almost no permeation was observed.

sedation in dogs = conditions: 4.5 mg intravenous dose reversed by 1.2 mg intravenous naloxone; cited from earlier work

COc1ccc2c3c1O[C@H]1C(=O)CC[C@H]4[C@@H](C2)N(C)CC[C@]314 [Hydrocodone]
Bioavailability ([1]; po): 80%

COc1ccc2c3c1O[C@H]1C(=O)CC[C@@]4(O)[C@@H](C2)N(C)CC[C@]314 [Oxycodone]
Bioavailability ([1]; oral): 87%

CN1CC[C@]23c4c5ccc(O)c4O[C@H]2C(=O)CC[C@@]3(O)[C@H]1C5 [Oxymorphone]
Dose after first pass effect [2]: 4.0 mg/day

C=CCN1CC[C@]23c4c5ccc(O)c4O[C@H]2C(=O)CC[C@@]3(O)[C@H]1C5 [naloxone hydrochloride]
permeability of the antagonist in the system [3]: largely impermeable

C=CCN1CC[C@]23c4c5ccc(O)c4O[C@H]2C(=O)CC[C@@]3(O)[C@H]1C5 [naloxone]
reversal of oxymorphone sedation (sedation in dogs): reversed
